Experimental findings from patent US8017649B2, “Flavonoid compounds and uses thereof” (Howard Florey Institute of Experimental Physiology and …, priority 2005, dated 2011) are described below.

“Also recorded” adds a separate entry of the source.

Assay [1] deals with endothelium-intact aortic rings treated with pyrogallol. In words: Vasorelaxation to ACh in the presence of oxidative stress (pyrogallol). The class given is cell-based, rat. As to conditions: pyrogallol 2×10^−5 M, F3P plus phosphatase; disodium salt. Here is the method: Control cumulative relaxation responses to ACh were compared with those obtained from endothelium-intact aortic rings treated with pyrogallol (2×10^−5 M). The effects of vehicle (0.1% DMSO), phosphatase (1000 U/L) or F3P (10^−6-10^−4 M) on responses to ACh in the rat isolated aortic rings exposed to pyrogallol (2×10^−5 M) were also determined. Pyrogallol was added when the aortic rings had reached a stable level of contraction with PE and U44619 at a level between 50 and 70% of KPSS-induced tension and 10 minutes was allowed before determining the cumulative concentration-response curves to ACh. In some experiments using F3P 1000 U/L phosphatase was used to cleave the phosphate.

Assay [2] concerns superoxide anions generated in rat aorta. In words: Superoxide anion production in rat isolated aortic segments (lucigenin chemiluminescence, NADPH). The class given is cell-based. As to conditions: disodium salt. Here is the method: Superoxide anion production in rat isolated aortic segments was determined using lucigenin chemiluminescence. Aortic rings were prepared as described above and then placed in ice-cold Krebs-(N-[2-Hydroxyethyl]piperazine-N′-[2-ethanesulfonic acid] (HEPES buffer) (composition (mM); NaCl 99.0, KCl 4.7, KH2PO4 1.0, MgSO4·7H2O 1.2, D-glucose 11.0, NaHCO3 25.0, CaCl2·2H2O 2.5, Na-HEPES 20.0). Aortic rings were pre-incubated for 45 minutes at 37° C. with a pH 7.4, in Krebs-HEPES buffer containing diethylthiocarbamic acid (DETCA, 10^−3 M) to inactivate superoxide dismutase and β-nicotinamide adenine dinucleotide phosphate (NADPH, 10^−4 M) as a substrate for NADPH oxidase and either 3′,4′-dihydroxyflavonol (10^−4 M) as a positive control, vehicle, 3-hydroxyflavone-3-hemiadipate, 3′,4′-dihydroxy-3-hemiadipate, 3-hydroxyflavone-3-phosphate (10^−8-10^−4 M). Background photon emission was measured for 12 cycles in a 96-well Optiplate containing 0.3 ml per well of Krebs-HEPES buffer together with lucigenin (5×10^−5 M) and vehicle or flavonoid (10^−8-10^−4 M). Each cycle was counted every one minute. After background reading was completed the incubated aortic rings were transferred to the appropriate wells and photon emission was recounted as described above. The tissue was then placed in a 65° C. oven for 48 hours to allow superoxide production to be normalised to dry tissue weight.
The effects of vehicle, 3′,4′-dihydroxyflavone-3-hemiadipate (21) (DiOHF3HA, 10^−8 M-10^−4 M) and DiOHF (10^−4 M) in the presence and absence of Butyryl cholinesterase (BuCHE), 100, 300 and 1000 U/L) on the level of superoxide anions generated in rat isolated aortic segments in the presence of NADPH was expressed as a percentage of control. The method used was as described above except for the addition of the butyryl cholinesterase.
The effect of vehicle, 3-hydroxyflavone-3-phosphate (10^−8 to 10^−4 M) in the presence or absence of phosphatase (1000 U/L) on the level of superoxide anions generated in rat aorta in the presence of NADPH expressed as a percentage of control was determined as described above for the 3′,4′-dihydroxyflavone-3-hemiadipate.

The test system of assay [3] is endothelium intact aortic rings. In words: Ca2+-induced contraction of rat aortic rings in Ca2+-free high-K+ solution. The class given is cell-based. Here is the method: To determine the effect of flavonoids on responses to the influx of extracellular Ca^2+, contractile responses to exogenous application of Ca^2+ were examined in the presence of flavonoids in Ca^2+-free high-K^+ solution (60 mM, KPSS). Aortic rings were initially equilibrated at a resting tension of 1 g in normal Ca^2+-free PSS for 45 minutes. The bath medium was then replaced with Ca^2+-free KPSS for 45 minutes to determine a reference contraction to Ca^2+ (3×10^−3 M). Following a 30 minute re-equilibration period with Ca^2+-free PSS, the cumulative contractile responses to Ca^2+ (10^−5−3×10^−3 M) were determined in KPSS in the presence of a range of concentrations (10^−8-10^−4 M) of vehicle, 3′,4′-dihydroxyflavonol, 3-hydroxyflavone-3-hemiadipate, 3′,4′-dihydroxy-3-hemiadipate, 3-hydroxyflavone-3-phosphate. A 20 minute incubation period was allowed for the flavonoids before examining the responses to Ca^2+.
To determine the effect of flavonoids on responses to the influx of extracellular Ca^2+, contractile responses to exogenous application of Ca^2+ were examined in the presence of flavonoids in Ca^2+-free high-K^+ solution (60 mM, K+-PSS). Aortic rings were initially equilibrated at a resting tension of 1 g in Ca^2+-free PSS for 45 minutes. The bath medium was then replaced with Ca^2+-free K+-PSS for 45 minutes to determine a reference contraction to added Ca^2+ (3 mM). Following a 30 minute re-equilibration period with Ca^2+-free PSS, the cumulative contractile responses to Ca^2+ (10^−5−3×10^−3 M) were determined in K^+ PSS in the presence of vehicle (0.1% DMSO), or a range of concentrations (10^−7-10^−4 M) of 3′-hydroxyflavonol, F3HA, DiOHF3HA or F3P. A 20 minute incubation period was allowed for the flavonoids before examining the responses to Ca^2+. Experiments were conducted in the presence and absence of BuCHE (1000 U/L) to cleave the adipate in F3HA and DiOHF3HA. In experiments using F3P, phosphatase (1000 U/L) was used in some experiments to cleave the phosphate.

A further assay has as its system anaesthetised rats. In words: Arterial pressure and heart rate in anaesthetised rats after intravenous injection. The class given is in vivo, rat. As to conditions: intravenous, anaesthetised rats; disodium salt. Here is the method: A unit dosage of an aqueous solution of 3-hydroxyflavone-3-hemiadipate (15) was administered to a group of male anesthetized Sprague Dawley rats intravenously and the blood pressure monitored over a period of time.
Male Sprague-Dawley rats (250-350 g) were anaesthetised with pentobarbitone sodium (60 mg kg^−1, ip). The trachea was isolated and cannulated with polyethylene tracheal tube (I.D. 2.0 mm), and the rat was allowed to breathe spontaneously.
The right carotid artery was cannulated and connected with a heparinised saline filled cannula (O.D. 0.75, I.D, 0.58 mm) and connected to a pressure transducer. Mean and phasic arterial pressure were continuously measured and recorded on a polygraph. The heart rate, was derived from the phasic arterial pressure using a tachometer.
DiOHF3HA ([…]) was injected intravenously, allowing at least 30 min between injections, and the peak changes in mean arterial pressure and heart rate measured. […] In a separate group of experiments ACh (0.3 mg/kg iv) and phenylephrine (PE, […]) were injected before and 30 minutes after DiOHF3HA (3 mg/kg iv), a time when arterial pressure and heart rate had returned to control levels. […]

The next assay concerns aortic rings. In words: Effect on SNP relaxation of precontracted rat aortic rings. The class given is cell-based. As to conditions: in the presence of BuCHE or phosphatase. Here is the method: (§1) After wash out and re-equilibration for 30 min, the aortic rings were then submaximally precontracted with PE and U46619, which were used to produce an active tension of 45-60% of the KPSS-induced maximum contraction. When investigating the effects of the flavonoids, flavonol, flavone-3-hemiadipate (F3HA), 3′, 4′-dihydroxyflavone, 3′,4′-dihydroxyflavonol, 3′,4′-dihydroxyflavone-3-hemiadipate (DiOHF3HA), and flavone-3-phosphate (F3P) on vasorelaxant responses, rings were incubated with one of the compounds for 20 mins before they were precontracted submaximally, followed by a cumulative-concentration response curve to ACh (100 nM-10 μM) or SNP ([…]). In experiments using F3P 1000U/L phosphatase was used in some experiments to cleave the phosphate. Some experiments were conducted in the presence and absence of butyryl cholinesterase (BuCHE, 1000 U/L) to cleave the adipate in DiOHF3HA and F3HA.

Assay [4] has as its system endothelium intact aortic rings. In words: Effect on ACh relaxation of precontracted rat aortic rings. The class given is cell-based. The settings on record: for Rmax of ACh relaxation: n=5. Here is the method: as §1

`O=c1c(OP(=O)([O-])[O-])c(-c2ccccc2)oc2ccccc12.[Na+].[Na+]` [F3P, 3-Hydroxyflavone-3-phosphate disodium salt]: the “maximum response to ACh under oxidant stress” value in assay [1] is listed as “the response was restored; also recorded: enhance endothelium-dependent relaxation in the presence of oxidant stress”. The “effect on superoxide generation” value in assay [2] (in the presence of cleaving enzyme (BuCHE for hemiadipates, phosphatase for phosphate, 1000 U/L)) was “concentration-dependent inhibition of superoxide levels; also recorded: inhibit superoxide levels produced by rat aorta”; in assay [2] (in the presence of cleaving enzyme (BuCHE for hemiadipates, phosphatase for phosphate, 1000 U/L), listed as flavone-3-phosphate), “concentration dependent decrease in the levels of superoxide”; in assay [2] (substance alone, no added esterase/phosphatase, up to 10^−4 M, NADPH), “no effect on superoxide generation; also recorded: no antioxidant or vascular activity”; in assay [2] (substance alone, no added esterase/phosphatase, up to 10^−4 M, NADPH, listed as 3-hydroxyflavone-3-phosphate) it was “measurable effect on the superoxide anion generation”. For the same molecule, the “effect on Ca^2+-induced contraction” value is “partial inhibition of the calcium-induced contraction” in assay [3] (alone, highest concentration 10^−4 M); “small inhibition of calcium-induced contraction” in assay [3] (alone, over the concentration range tested); “markedly enhanced the inhibitory effects” in assay [3] (in the presence of BuCHE or phosphatase (1000 U/L), listed as flavone-3-phosphate, disodium salt). In addition, the “change in heart rate (HR)” value in the assay on anaesthetised rats was “dose-dependent decrease in HR; also recorded: only small concentration dependent decreases”. Also, the “change in mean arterial pressure (MAP)” value in the assay with anaesthetised rats was “dose-dependent decreases in MAP; also recorded: only small concentration dependent decreases”. Besides, the “effect on relaxant response to SNP” value with aortic rings was “not SNP”. Further, the “Rmax of ACh relaxation” value in assay [4] (F3P 10^−4 M + phosphatase) and in assay [4] (F3P 10^−5 M + phosphatase) was 100 ± 1 throughout. In assay [4] (in the presence of phosphatase, disodium salt), the “effect on relaxant response to ACh” value is reported as “enhanced; also recorded: increased the sensitivity of rat aortic rings to relaxation by ACh”.
